According to article PMC6422423, “Constitutively active BRS3 is a genuinely orphan GPCR in placental mammals” (PLoS Biology, 2019):
Entries after “also recorded” stand apart in the source; their conditions may differ. *1 amine or outer side, *2 acyl side, *3 side chain or, on linkers, in order; H or OH if unused. Where a SMILES comes first, the peptide text is derived from it. Bridges are numbered along the chain shown (N, C = ends). [ ]: non-standard residue; d: D form. X1 = CC(=O)NC(C(=O)OC(C(C)C)C(N[*:1])C(=O)[*:2])C(O)C(C)C; PhLac = O=C(O)[CH](O)Cc1ccccc1; NMeT = CN[CH](C(=O)O)[CH](C)O; NMeA = CN[CH](C)C(=O)O; NMeDha = C=C(NC)C(=O)O

Tests used:
[1] = system: BRS3 of placental mammals (hBRS3, mBRS3, and aBRS3); test: Luciferase reporter, constitutive Gq activity with inhibitor, pooled; type: cell-based, human, mouse, aardvark; settings: inhibitor 25 μM, 12 h, HEK293
Protocol: (§1) To detect constitutive activity of BRS3, HEK293 cells were seeded in 24-well plates and cotransfected with the CRE/NFAT-RE/SRF-RE/SRE luciferase reporter plasmids (50 ng), the BRS3 from different species, or BRS3 mutants with different doses (10 ng/50 ng/150 ng); after 24 h, cells were further incubated in serum-free media for another 12 h before luciferase assay. As for peptide supplementation treatment, HEK293 cells were cotransfected with the CRE/NFAT-RE/SRF-RE/SRE luciferase reporter plasmids (50 ng) and various genes (300 ng) of the bombesin receptor family. […] Luciferase activities were determined using luciferase assay kits (Beyotime, Shanghai, China) and normalized to β-galactosidase activity. All experiments were performed at least three times in triplicates. HEK293 cells transfected with pcDNA were used as a blank control in all luciferase experiments, and the fold was calculated compared to blank control.

[2] = system: BRS3 receptors in nonplacental vertebrates; test: Intracellular calcium assay, nonplacental pooled; type: cell-based, koala, platypus, chicken, turtle, frog, and spotted gar; settings: cBRS3, tBRS3, sBRS3; inhibitor 25 μM 1 h, then GRP or NMB 10 nM; HEK293
Protocol: Intracellular calcium was measured using the non-wash calcium assay Fluo8 kit (ab112129, Abcam) according to the manufacturer’s instructions. Briefly, HEK293 cells were seeded in 24-well plates and were transfected with GRPR, NMBR, BRS3, or the empty vector plasmid pcDNA3.1-V5-His (300 ng) and incubated overnight at 37°C with 5% CO2. The next day, the cells were replated into a 96-well assay plate (black plate and clear bottom). After 12 h, growth media were aspirated, and calcium dye was added. […] The basal fluorescence intensity was recorded 15 times at 1 Hz for […]. The results were normalized to the average basal fluorescence intensity in ratio, and the peak response was used for the result calculation. Calcium fold was calculated using no stimulation data as standard value.

[3] = system: BRS3 receptors in nonplacental vertebrates; test: ERK1/2 phosphorylation, nonplacental pooled; type: cell-based, koala, platypus, chicken, turtle, frog, and spotted gar; settings: cBRS3, tBRS3, sBRS3; inhibitor 25 μM 1 h, then GRP or NMB 1 μM 5 min; HEK293
Protocol: For ERK1/2 phosphorylation, HEK293 cells were seeded in 24-well plates and transfected with GRPR, NMBR, BRS3, mutants of different species’ BRS3, or an empty vector plasmid, pcDNA3.1-V5-His plasmid (300 ng). […] Each sample with an equal amount of protein was mixed with 6×SDS sample buffer, boiled for 5 min, and separated on 10% SDS-polyacrylamide gel electrophoresis (PAGE) before transferring the proteins onto a PVDF membrane. The membranes were then blocked at room temperature for 1 h with 5% milk powder in Tris-buffered saline-Tween (TBST), followed by subsequent incubation at 4°C overnight in TBST containing the different primary antibodies (1:1,000 dilution). After washing three times (10 min each time) with TBST, the membranes were incubated for 1 h in TBST containing the secondary antibodies (1:2,000 dilution), followed by washing three times (10 min each time) with TBST, prior to detection by chemiluminescence.

human BRS3 (hBRS3) = test: Luciferase reporter, constitutive activity (WT, mutants, truncated; with/without inhibitor); type: cell-based; settings: 25 μM inhibitor 12 h, HEK293, vs blank
Protocol: as §1

aardvark BRS3 (aBRS3) = test: as above; type: cell-based, Orycteropus afer; settings: 25 μM inhibitor 12 h, HEK293, vs blank
Protocol: as §1

mouse BRS3 (mBRS3) = test: as above; type: cell-based; settings: 25 μM inhibitor 12 h, HEK293, vs blank
Protocol: as §1

[4] = system: pcDNA-transfected HEK293 cells; test: Luciferase reporter, N-terminal peptide stimulated, empty vector; type: cell-based, human; settings: 1,000 nM peptide 12 h
Protocol: as §1

[5] = system: N-mBRS3 (mouse BRS3 with truncated N terminus); test: Luciferase reporter, N-terminal peptide stimulated, truncated receptor; type: cell-based; settings: 1,000 nM peptide 12 h, HEK293
Protocol: as §1

[6] = system: N-hBRS3 (human BRS3 with truncated N terminus); test: as above; type: cell-based; settings: 1,000 nM peptide 12 h, HEK293
Protocol: as §1

[7] = system: N-BRS3 receptors of placental mammals (N-hBRS3, N-mBRS3, and N-aBRS3); test: Luciferase reporter, N-terminal peptide stimulated, pooled; type: cell-based, human, mouse, aardvark; settings: CRE/NFAT-RE/SRF-RE; 1,000 nM, 12 h, HEK293
Protocol: as §1

[8] = system: N-aBRS3 (aardvark BRS3 with truncated N terminus); test: Luciferase reporter, N-terminal peptide stimulated, truncated receptor; type: cell-based, Orycteropus afer; settings: 1,000 nM peptide 12 h, HEK293
Protocol: as §1

N-cBRS3 (chicken) = test: as above; type: cell-based, Gallus gallus; settings: 1,000 nM, 12 h, HEK293
Protocol: as §1

N-sBRS3 (spotted gar) = test: as above; type: cell-based, Lepisosteus oculatus; settings: 1,000 nM, 12 h, HEK293
Protocol: as §1

N-tBRS3 (turtle) = test: as above; type: cell-based, Chrysemys picta; settings: 1,000 nM, 12 h, HEK293
Protocol: as §1

GPR39 = settings: cited from earlier work
Text: Coevolution of GPCR–ligand pairs appears more pronounced in the polypeptide family, and there are approximately 30 orphan GPCRs from the polypeptide family, in which endogenous peptide ligands are predicted to bind to and activate these orphan GPCRs. Since GPCRs from the polypeptide family were considered to be paired with natural polypeptide ligands, many studies aim to identify endogenous peptides to deorphanize these orphan GPCRs in the polypeptide family. According to the evolution of GPCR-peptide pairs, after the 2R event during the origin of vertebrates, most orphan GP ...

CN1CCN(c2nc(C3=C(c4c[nH]c5ccccc45)C(=O)NC3=O)c3ccccc3n2)CC1 [Sotrastaurin]
Inhibition of constitutive Gq signaling (in words) [1]: inhibits the constitutively activated Gq signaling pathway | Inhibition of Ca2+ mobilization (in words) [2]: inhibits Ca^2+ ion levels | Inhibition of ERK phosphorylation (in words) [3]: inhibits the phosphorylation levels of ERK

C=C1C(=O)NC(C)C(=O)N(C)C(C)C(=O)NC(C(OC(=O)C(NC(C)=O)C(O)C(C)C)C(C)C)C(=O)N(C)C(C(C)OC)C(=O)OC(C)C(NC(C)=O)C(=O)OC(Cc2ccccc2)C(=O)N1C (stereo not drawn) [YM 254890] (Ac-T[PhLac][NMeDha]A[NMeA][X1][NMeT](Me); ester 1-C; configuration not given here)
Luciferase fold (constitutive Gq signaling) with inhibitor (human BRS3 (hBRS3); line 1): 0.7675 fold | Luciferase fold (constitutive Gq signaling) with inhibitor (human BRS3 (hBRS3); line 2): 0.8993 fold | Luciferase fold (constitutive Gq signaling) with inhibitor (human BRS3 (hBRS3); line 3): 0.8334 fold | Inhibition of constitutive Gq signaling (in words) [1]: inhibits the constitutively activated Gq signaling pathway | Luciferase fold (constitutive Gq signaling) with inhibitor (aardvark BRS3 (aBRS3); line 1): 1.6524 fold | Luciferase fold (constitutive Gq signaling) with inhibitor (aardvark BRS3 (aBRS3); line 2): 1.8796 fold | Luciferase fold (constitutive Gq signaling) with inhibitor (aardvark BRS3 (aBRS3); line 3): 1.766 fold | Inhibition of Ca2+ mobilization (in words) [2]: inhibits Ca^2+ ion levels; also recorded: inhibited | Inhibition of ERK phosphorylation (in words) [3]: inhibits the phosphorylation levels of ERK; also recorded: inhibited | Luciferase fold (constitutive Gq signaling) with inhibitor (mouse BRS3 (mBRS3); line 1): 1.3903 fold | Luciferase fold (constitutive Gq signaling) with inhibitor (mouse BRS3 (mBRS3); line 2): 1.6189 fold | Luciferase fold (constitutive Gq signaling) with inhibitor (mouse BRS3 (mBRS3); line 3): 1.5046 fold

MSQRQSQSPNQTLISITNDTETSSSVVSNDTTHKGWTGDNS-NH2 [N-terminal peptide of mBRS3, synthetic N terminus peptide of mouse BRS3]
CRE luciferase fold ([4]; line 1): 0.9705 fold | NFAT luciferase fold ([4]; line 1): 0.9071 fold | SRF luciferase fold ([4]; line 1): 0.9788 fold | CRE luciferase fold ([4]; line 2): 1.0972 fold | NFAT luciferase fold ([4]; line 2): 1.1044 fold | SRF luciferase fold ([4]; line 2): 1.0087 fold | CRE luciferase fold ([4]; line 3): 1.0338 fold | NFAT luciferase fold ([4]; line 3): 1.0057 fold | SRF luciferase fold ([4]; line 3): 0.9937 fold | CRE luciferase fold ([5]; line 1): 1.2458 fold | NFAT luciferase fold ([5]; line 1): 2.0847 fold | SRF luciferase fold ([5]; line 1): 1.4898 fold | CRE luciferase fold ([5]; line 2): 1.0945 fold | NFAT luciferase fold ([5]; line 2): 1.8235 fold | SRF luciferase fold ([5]; line 2): 1.6079 fold | CRE luciferase fold ([5]; line 3): 1.1702 fold | NFAT luciferase fold ([5]; line 3): 1.9541 fold | SRF luciferase fold ([5]; line 3): 1.5488 fold | CRE luciferase fold ([6]; line 1): 1.2968 fold | NFAT luciferase fold ([6]; line 1): 1.5912 fold | SRF luciferase fold ([6]; line 1): 1.6244 fold | CRE luciferase fold ([6]; line 2): 1.4057 fold | NFAT luciferase fold ([6]; line 2): 1.6741 fold | SRF luciferase fold ([6]; line 2): 1.7709 fold | CRE luciferase fold ([6]; line 3): 1.3512 fold | NFAT luciferase fold ([6]; line 3): 1.6327 fold | SRF luciferase fold ([6]; line 3): 1.6976 fold | Activation of truncated receptors (in words) [7]: all CRE/NFAT-RE/SRF-RE signaling pathways could be activated | CRE luciferase fold ([8]; line 1): 1.4026 fold | NFAT luciferase fold ([8]; line 1): 2.2791 fold | SRF luciferase fold ([8]; line 1): 1.3458 fold | CRE luciferase fold ([8]; line 2): 1.3089 fold | NFAT luciferase fold ([8]; line 2): 1.9413 fold | SRF luciferase fold ([8]; line 2): 1.2427 fold | CRE luciferase fold ([8]; line 3): 1.3558 fold | NFAT luciferase fold ([8]; line 3): 2.1102 fold | SRF luciferase fold ([8]; line 3): 1.2942 fold | Activation of truncated receptor (in words) (N-cBRS3 (chicken)): cannot be stimulated | Activation of truncated receptor (in words) (N-sBRS3 (spotted gar)): cannot be stimulated | Activation of truncated receptor (in words) (N-tBRS3 (turtle)): cannot be stimulated

obestatin
Activation of GPR39 (in words) (GPR39): activated | Activation of GPR39, contrary view (in words) (GPR39): cannot be activated
